The values that follow are results of earlier work, collected in patent publication US20070281957A1, “Crystalline Forms of Levorphanol” (Mallinckrodt Inc., priority 2006, published 2007).

For data set [1] the following is noted: levorphanol free base, known physical property.
The conditions of data set [2]: levorphanol free base, known physical property. The source holds these as a separate data set.

Turning to `CN1CC[C@]23CCCC[C@H]2[C@H]1Cc1ccc(O)cc13` [Levorphanol, 3-Hydroxy-N-methylmorphinan], the “Vapor pressure (at 25° C.)” value in data set [1] is on record as 1.04 × 10^−6 mmHg. For the same compound, the “Water solubility (at 25° C.)” value in data set [2] is 1840 µg/mL.
